Data: the supplement of paper PMC8617591

Tests used:
[1] = system: Mycobacterium tuberculosis Erdman (autoluminescent); experiment: GRinf, maximum normalised growth rate inhibition (three-drug combination) (unitless (-1 to 1)); higher = less effect (negative = killing)
Protocol: (§1)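 DiaMOND equipotent three-drug combination dose responses (10 doses, 1.5- or 2-fold spacing, centred on IC90) against autoluminescent M. tuberculosis Erdman in 8 in vitro models. Read-out is OD600, or luminescence for the intracellular and dormancy models, normalised to untreated wells. Hill-fit Einf, AUC25 and GRinf are potency metrics; FIC50 and FIC90 are total Loewe fractional inhibitory concentrations as log2 (negative = synergy).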

[2] = system: Mycobacterium tuberculosis Erdman (autoluminescent); experiment: total FIC50 (Loewe) at 50% inhibition, three-drug combination (log2); higher = more antagonistic
Protocol: as §1

[3] = system: Mycobacterium tuberculosis Erdman (autoluminescent); experiment: AUC25, normalised area under dose response up to IC25 (three-drug combination) (fraction (0-1)); higher = more potent at low dose
Protocol: as §1

[4] = system: Mycobacterium tuberculosis Erdman (autoluminescent); experiment: total FIC90 (Loewe) at 90% inhibition, three-drug combination (log2); higher = more antagonistic
Protocol: as §1

[5] = system: Mycobacterium tuberculosis Erdman (autoluminescent); experiment: Einf, fitted maximum growth inhibition of three-drug combination (fraction); higher = stronger maximal inhibition
Protocol: as §1

COc1nc2ccc(Br)cc2cc1[C@@H](c1ccccc1)[C@@](O)(CCN(C)C)c1cccc2ccccc12 [bedaquiline] + CC(C)/N=c1\cc2n(-c3ccc(Cl)cc3)c3ccccc3nc-2cc1Nc1ccc(Cl)cc1 [clofazimine] + CC(=O)NC[C@H]1CN(c2ccc(N3CCOCC3)c(F)c2)C(=O)O1 [linezolid]
Conditions	AUC25, [3]	Einf, [5]	GRinf, [1]	total FIC50, [2]	total FIC90, [4]
in vitro model: acidic pH 5.7, time point: constant (~7 days, model-specific)	0.0792	0.874	-0.465	0.0418	–
in vitro model: acidic pH 5.7, time point: terminal (~4-5 doublings, model-specific)	0.0781	0.97	-0.331	0.786	0.299
in vitro model: intracellular J774, time point: constant = terminal	–	0.929	-0.17	–	0.186

Conditions	AUC25, [3]	Einf, [5]	GRinf, [1]	total FIC50, [2]	total FIC90, [4]
in vitro model: butyrate, time point: constant (~7 days, model-specific)	0.0701	0.947	-0.105	0.0722	-0.55
in vitro model: butyrate, time point: terminal (~4-5 doublings, model-specific)	0.0486	0.977	-0.115	0.112	-0.466
in vitro model: cholesterol 0.05 mM, time point: constant (~7 days, model-specific)	0.14	0.769	-0.304	-0.461	–
in vitro model: cholesterol 0.05 mM, time point: terminal (~4-5 doublings, model-specific)	0.137	0.951	-0.374	-0.129	-0.783
in vitro model: cholesterol-high 0.2 mM, time point: constant (~7 days, model-specific)	0.0852	0.944	-0.281	-0.437	-0.594
in vitro model: cholesterol-high 0.2 mM, time point: terminal (~4-5 doublings, model-specific)	0.0962	0.999	-0.488	-0.195	-0.484
in vitro model: dormancy (butyrate + nitrate, low O2), time point: constant (~7 days, model-specific)	0.0703	0.913	0.219	-0.36	-0.911
in vitro model: dormancy (butyrate + nitrate, low O2), time point: terminal (~4-5 doublings, model-specific)	0.0497	0.99	-0.161	-0.24	-0.848
in vitro model: standard 7H9 glycerol, time point: constant = terminal	0.0911	0.962	-0.0979	-0.27	-0.871
in vitro model: valerate, time point: constant (~7 days, model-specific)	0.134	0.931	-0.127	0.0537	-0.00887
in vitro model: valerate, time point: terminal (~4-5 doublings, model-specific)	0.0869	0.944	-0.0541	0.263	1.19

CC(=O)NC[C@H]1CN(c2ccc(N3CCOCC3)c(F)c2)C(=O)O1 [linezolid] + O=[N+]([O-])c1cn2c(n1)OC[C@@H](OCc1ccc(OC(F)(F)F)cc1)C2 [pretomanid] + NC(=O)c1cnccn1 [pyrazinamide]
Conditions	AUC25, [3]	Einf, [5]	GRinf, [1]	total FIC50, [2]	total FIC90, [4]
in vitro model: acidic pH 5.7, time point: constant (~7 days, model-specific)	0.0949	0.856	-0.473	0.268	–
in vitro model: acidic pH 5.7, time point: terminal (~4-5 doublings, model-specific)	0.0835	0.975	-0.473	0.91	-0.88
in vitro model: intracellular J774, time point: constant = terminal	–	0.986	-0.287	–	0.7

Conditions	AUC25, [3]	Einf, [5]	GRinf, [1]	total FIC50, [2]	total FIC90, [4]
in vitro model: butyrate, time point: constant (~7 days, model-specific)	0.104	0.885	0.0996	-0.0692	–
in vitro model: butyrate, time point: terminal (~4-5 doublings, model-specific)	0.0881	0.929	0.102	-0.254	0.667
in vitro model: cholesterol 0.05 mM, time point: constant (~7 days, model-specific)	0.14	0.706	-0.191	–	–
in vitro model: cholesterol 0.05 mM, time point: terminal (~4-5 doublings, model-specific)	0.145	0.93	-0.318	0.461	–
in vitro model: cholesterol-high 0.2 mM, time point: constant (~7 days, model-specific)	0.108	0.902	-0.152	0.147	–
in vitro model: cholesterol-high 0.2 mM, time point: terminal (~4-5 doublings, model-specific)	0.113	1	-1	0.0501	0.419
in vitro model: dormancy (butyrate + nitrate, low O2), time point: constant (~7 days, model-specific)	0.056	0.907	0.16	0.49	0.622
in vitro model: dormancy (butyrate + nitrate, low O2), time point: terminal (~4-5 doublings, model-specific)	0.0409	0.985	-0.287	0.47	0.511
in vitro model: standard 7H9 glycerol, time point: constant = terminal	0.0884	0.926	0.0609	0.706	–
in vitro model: valerate, time point: constant (~7 days, model-specific)	0.102	0.808	0.0778	-0.628	–
in vitro model: valerate, time point: terminal (~4-5 doublings, model-specific)	0.0792	0.891	0.177	-0.429	1.41

CC[C@@H](CO)NCCN[C@@H](CC)CO [ethambutol] + NNC(=O)c1ccncc1 [isoniazid] + COc1c(N2C[C@@H]3CCCN[C@@H]3C2)c(F)cc2c(=O)c(C(=O)O)cn(C3CC3)c12 [moxifloxacin]
Conditions	AUC25, [3]	Einf, [5]	GRinf, [1]	total FIC50, [2]	total FIC90, [4]
in vitro model: acidic pH 5.7, time point: constant (~7 days, model-specific)	0.0955	0.722	-0.273	-0.309	–
in vitro model: acidic pH 5.7, time point: terminal (~4-5 doublings, model-specific)	0.0597	0.933	-0.253	0.821	0.326
in vitro model: intracellular J774, time point: constant = terminal	–	0.976	-0.437	–	-0.746

Conditions	AUC25, [3]	Einf, [5]	GRinf, [1]	total FIC50, [2]	total FIC90, [4]
in vitro model: butyrate, time point: constant (~7 days, model-specific)	0.0852	0.938	-0.0732	0.655	–
in vitro model: butyrate, time point: terminal (~4-5 doublings, model-specific)	0.0658	0.974	-0.0933	0.598	0.445
in vitro model: cholesterol 0.05 mM, time point: constant (~7 days, model-specific)	0.119	0.798	-0.268	0.425	–
in vitro model: cholesterol 0.05 mM, time point: terminal (~4-5 doublings, model-specific)	0.0714	0.92	0.0114	1.23	0.826
in vitro model: cholesterol-high 0.2 mM, time point: constant (~7 days, model-specific)	0.0564	0.94	-0.315	0.863	–
in vitro model: cholesterol-high 0.2 mM, time point: terminal (~4-5 doublings, model-specific)	0.0472	1	-0.686	1.21	0.977
in vitro model: dormancy (butyrate + nitrate, low O2), time point: constant (~7 days, model-specific)	0.119	0.851	0.356	0.357	–
in vitro model: dormancy (butyrate + nitrate, low O2), time point: terminal (~4-5 doublings, model-specific)	0.125	0.986	-0.134	-0.452	0.658
in vitro model: standard 7H9 glycerol, time point: constant = terminal	0.0677	0.975	-0.186	0.205	0.328
in vitro model: valerate, time point: constant (~7 days, model-specific)	0.0908	0.876	-0.0258	0.301	–
in vitro model: valerate, time point: terminal (~4-5 doublings, model-specific)	0.0784	0.953	0.0174	0.421	0.19
